Laboratory results as given in ChEMBL document CHEMBL1201862, “PubChem BioAssay data set” (2004).
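Where inhibition never reached the appropriate level, the endpoint shown equals the highest concentration tested. Otherwise, values were interpolated linearly from a five-concentration, 48-hour dose response in 96-well plates. GI50 is the concentration that inhibits growth by half.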 Activity calls are given as the source filed them. Cut-off read from the data, not from the text of the source: active = GI50 up to about 1.1 µM and inactive = higher.

How the values were obtained:
Assay in all cases: NCI anticancer screen, dose series, 48 h
MDA-MB-435 = test system: MDA-MB-435
OVCAR-4 = test system: OVCAR-4
LOX IMVI = test system: LOX IMVI
IGROV-1 = test system: IGROV-1
BT-549 = test system: BT-549
K562 = test system: K562
SW-620 = test system: SW-620
SNB-19 = test system: SNB-19
NCI-H460 = test system: NCI-H460
OVCAR-8 = test system: OVCAR-8
CAKI-1 = test system: CAKI-1
HCT-15 = test system: HCT-15
SF-268 = test system: SF-268
SF-539 = test system: SF-539
SR = test system: SR
Hs-578T = test system: Hs-578T
SK-OV-3 = test system: SK-OV-3

Compound	GI50 (MDA-MB-435)	GI50 (OVCAR-4)	GI50 (LOX IMVI)	GI50 (IGROV-1)	GI50 (BT-549)	GI50 (K562)	GI50 (SW-620)	GI50 (SNB-19)	GI50 (NCI-H460)	GI50 (OVCAR-8)	GI50 (CAKI-1)	GI50 (HCT-15)	GI50 (SF-268)	GI50 (SF-539)	GI50 (SR)	GI50 (Hs-578T)	GI50 (SK-OV-3)
CCNC(=O)c1c(O)nc2ccccc2c1O	59.7 µM (inactive)	70.6 µM (inactive)	51.5 µM (inactive)	39.4 µM (inactive)	78.2 µM (inactive)	39.8 µM (inactive)	43.1 µM (inactive)	83.9 µM (inactive)	34.9 µM (inactive)	> 100 µM (inactive)	55.5 µM (inactive)	29 µM	63.4 µM (inactive)	> 100 µM (inactive)	25.5 µM (inactive)	40.5 µM (inactive)	
Cc1ccc([C@@H]2[C@@H](C(=O)c3ccccn3)[C@H](c3ccc(C)cc3)C[C@](O)(c3ccccn3)[C@H]2C(=O)c2ccccn2)cc1	8.22 µM (inactive)	4.98 µM (inactive)	2.84 µM (inactive)	4.53 µM (inactive)	> 27.4 µM (inactive)		> 22.6 µM (inactive)	3.04 µM (inactive)	2.27 µM (inactive)	3.33 µM (inactive)	3.95 µM (inactive)	1.77 µM	0.946 µM (active)	2.08 µM (inactive)	0.495 µM (active)	26.5 µM (inactive)	
C=CCCC(=O)C(=[N+]=[N-])C(=O)CCC(=O)c1ccccc1	> 10 µM (inactive)		> 10 µM (inactive)	> 10 µM (inactive)	> 10 µM (inactive)	> 10 µM (inactive)	> 10 µM (inactive)	> 10 µM (inactive)	> 10 µM (inactive)	> 10 µM (inactive)		> 10 µM	> 10 µM (inactive)	> 10 µM (inactive)	> 10 µM (inactive)	> 10 µM (inactive)	> 10 µM (inactive)
CC(=O)O[C@H]1CC[C@@]2(C)C(=CC[C@@H]3[C@@H]2CC[C@](C)(c2nnc(C)o2)[C@H]3CC#N)C1	> 100 µM (inactive)	> 100 µM (inactive)	> 100 µM (inactive)	> 100 µM (inactive)	> 100 µM (inactive)	> 100 µM (inactive)	> 100 µM (inactive)	> 100 µM (inactive)		> 100 µM (inactive)	> 100 µM (inactive)	> 100 µM	> 100 µM (inactive)	> 100 µM (inactive)	> 100 µM (inactive)	0.0735 µM (active)	> 100 µM (inactive)
CCCn1c(=O)c(N2CCN(c3ccccc3)CC2)nc2sc3ccccc3c21	> 100 µM (inactive)	> 100 µM (inactive)	> 100 µM (inactive)	> 100 µM (inactive)	97.3 µM (inactive)		> 100 µM (inactive)	> 100 µM (inactive)	> 100 µM (inactive)	> 100 µM (inactive)	> 100 µM (inactive)	> 100 µM	> 100 µM (inactive)	> 100 µM (inactive)		> 100 µM (inactive)	> 100 µM (inactive)
Nc1ccc(-c2nnc(-c3c(Cl)c(Cl)c(Cl)c(Cl)c3-c3nc4cc(C(=O)c5ccccc5)ccc4[nH]3)o2)cc1	4.95 µM (inactive)	24.5 µM (inactive)	34.6 µM (inactive)	28.5 µM (inactive)	24.6 µM (inactive)	8 µM (inactive)	29.5 µM (inactive)	27.2 µM (inactive)		43.8 µM (inactive)	48.1 µM (inactive)	15.7 µM	28.5 µM (inactive)	14.2 µM (inactive)	5.16 µM (inactive)	28 µM (inactive)	26.1 µM (inactive)
Cc1csc(NCc2ccc(Cl)cc2)n1	52.2 µM (inactive)	37 µM (inactive)	99.3 µM (inactive)	45.9 µM (inactive)	62.7 µM (inactive)	45.7 µM (inactive)	69.7 µM (inactive)	75.2 µM (inactive)		56.2 µM (inactive)	60.5 µM (inactive)	39.1 µM	51.2 µM (inactive)	> 100 µM (inactive)	36.1 µM (inactive)	54.7 µM (inactive)	> 100 µM (inactive)
COc1ccccc1Cc1ccc(C2C=CC3(CC(=O)C=C3C)C(=O)C2)o1 (stereo not given)	19.4 µM (inactive)	31 µM (inactive)	17.3 µM (inactive)	29.2 µM (inactive)	20.6 µM (inactive)	20 µM (inactive)	18.5 µM (inactive)	47.2 µM (inactive)	30.5 µM (inactive)	17.1 µM (inactive)	29.6 µM (inactive)	25.6 µM	20.3 µM (inactive)	18.6 µM (inactive)	18.4 µM (inactive)	20.2 µM (inactive)	
O=[N+]([O-])c1cc(C(F)(F)F)ccc1S(=O)(=O)N[C@@H]1CCCC[C@H]1NS(=O)(=O)c1ccc(C(F)(F)F)cc1[N+](=O)[O-]	2.15 µM (inactive)	2.61 µM (inactive)	1.56 µM (inactive)	2.31 µM (inactive)	2.23 µM (inactive)		3.78 µM (inactive)	5.68 µM (inactive)	3.57 µM (inactive)	2.86 µM (inactive)	2.65 µM (inactive)	2.69 µM	2.49 µM (inactive)	1.81 µM (inactive)		2.48 µM (inactive)	13.6 µM (inactive)
CCCCCCCC(=O)N1C2CC3CCC2(CS1(=O)=O)C3(C)C (stereo not given)	31.4 µM (inactive)	32.7 µM (inactive)		43.2 µM (inactive)	26.4 µM (inactive)		23.3 µM (inactive)	26 µM (inactive)	30.1 µM (inactive)	34.1 µM (inactive)	20.2 µM (inactive)	13.1 µM	35.4 µM (inactive)	16.9 µM (inactive)	18.6 µM (inactive)	15.6 µM (inactive)	46.8 µM (inactive)
Nc1nc2c(=O)c3ccccc3sc2s1	> 100 µM (inactive)		46.1 µM (inactive)	43.2 µM (inactive)	41.4 µM (inactive)	34.8 µM (inactive)	> 100 µM (inactive)	41.9 µM (inactive)	35.1 µM (inactive)	22.6 µM (inactive)	20.4 µM (inactive)	34.5 µM	40.6 µM (inactive)	17.3 µM (inactive)	48.3 µM (inactive)	43.7 µM (inactive)	
Cn1cc[n+](-c2cc(=O)n(C)c(=O)[n-]2)c1	> 100 µM (inactive)	94.4 µM (inactive)	> 100 µM (inactive)	> 100 µM (inactive)	> 100 µM (inactive)	81.8 µM (inactive)	> 100 µM (inactive)	> 100 µM (inactive)	> 100 µM (inactive)			> 100 µM	> 100 µM (inactive)	> 100 µM (inactive)	27.9 µM (inactive)	42.8 µM (inactive)	> 100 µM (inactive)
Cc1nn(-c2ccccc2)c(C)c1/C=N/N=C1\S/C(=C\c2ccc(Cl)cc2)C(=O)N1c1ccccc1	32 µM (inactive)	2.15 µM (inactive)	> 100 µM (inactive)	5.83 µM (inactive)	> 100 µM (inactive)	7.91 µM (inactive)	9.2 µM (inactive)	48.8 µM (inactive)	> 100 µM (inactive)	40.3 µM (inactive)	> 100 µM (inactive)	9.89 µM	51.5 µM (inactive)	> 100 µM (inactive)		5.65 µM (inactive)	> 100 µM (inactive)
CC1(C)[C@@H]2CC[C@]1(C)[C@H](OC(=O)/C=C/c1ccccc1)C2	26 µM (inactive)	22 µM (inactive)	21.3 µM (inactive)	27.7 µM (inactive)	21.9 µM (inactive)	19.9 µM (inactive)	15.5 µM (inactive)	19.8 µM (inactive)	29 µM (inactive)	20.8 µM (inactive)	20.2 µM (inactive)	17.6 µM	17.3 µM (inactive)	20.7 µM (inactive)		19.5 µM (inactive)	34.9 µM (inactive)
CNC(=O)c1ccc(C(=O)NCCCCCN(O)C(=O)CCC(=O)NCCCCCN(O)C(=O)CCC(=O)NCCCCCN(O)C(C)=O)c(O)c1O	> 100 µM (inactive)	1.07 µM (active)	18.3 µM (inactive)	60.4 µM (inactive)	56.6 µM (inactive)	65 µM (inactive)	39.3 µM (inactive)	62.7 µM (inactive)	36.1 µM (inactive)	30.8 µM (inactive)	55.3 µM (inactive)	21.9 µM	23.1 µM (inactive)	29 µM (inactive)		> 100 µM (inactive)	45.4 µM (inactive)
COc1ccccc1C1(c2c(OC)c(=O)c2=O)SCCCS1	> 100 µM (inactive)	> 100 µM (inactive)	60.3 µM (inactive)	47.2 µM (inactive)	31.6 µM (inactive)	> 100 µM (inactive)	> 100 µM (inactive)	74 µM (inactive)	> 100 µM (inactive)	67.1 µM (inactive)	> 100 µM (inactive)	61 µM	> 100 µM (inactive)	> 100 µM (inactive)		35 µM (inactive)	> 100 µM (inactive)
O=C(O)C1(C(O)c2ccccc2)SCCCS1 (stereo not given)	> 10 µM (inactive)		> 10 µM (inactive)	> 10 µM (inactive)	> 10 µM (inactive)	> 10 µM (inactive)	> 10 µM (inactive)	> 10 µM (inactive)	> 10 µM (inactive)	> 10 µM (inactive)		> 10 µM	> 10 µM (inactive)	> 10 µM (inactive)	> 10 µM (inactive)	> 10 µM (inactive)	> 10 µM (inactive)
CCCC(=O)C1=C(O)C(Cc2c(O)c(C)c(O)c(C(=O)CCC)c2O)=C(O)C(C)(C)C1=O	> 50 µM (inactive)	43.6 µM (inactive)	19 µM (inactive)	37 µM (inactive)	> 50 µM (inactive)	15.4 µM (inactive)	13.9 µM (inactive)	20.7 µM (inactive)	14.3 µM (inactive)	> 50 µM (inactive)	> 50 µM (inactive)	20 µM	34.8 µM (inactive)		14.7 µM (inactive)	40.6 µM (inactive)	22.6 µM (inactive)
